Tested on: β-catenin
Assay: Western analysis of β-catenin in RL95-2 cells
Format: cell-based, human
Source text: We performed Western blot analysis in RL95-2 cells that were expressing empty vector (Control), over-expressing PME-1 (+PME-1) or expressing shRNA against PME-1 (−PME-1) (SEQ ID NO: 2) to examine the protein stability of β-catenin (FIG. 19A). We observed a decrease in total β-catenin protein in cells that were over-expressing PME-1. This observation is correlated with the predicted ubiquitylation of β-catenin and its degradation.
In another series of study, we performed a similar assay in which cells were treated with 10 μM MG-132 prior to protein extraction. MG-132 is a proteasome inhibitor and therefore allows for the accumulation of phosphorylated β-catenin, which is normally quickly degraded, to be detected by western analysis.
15 μg of protein was used for western analysis. PME-1 antibody (Santa Cruz) and COXIV (Cell Signaling Technologies) were used for detection of proteins and the blots were developed using chemiluminescence (Pierce ECL Western Blotting Substrate—Thermo Scientific) on the GE ImageQuant LAS 4000. For analysis of Akt, ERK, and β-catenin signaling in tissue culture, western analyses were completed as follows. RL95-2 cells stably infected with lentivirus expressing constructs were selected with puromycin (Invivogen). […]

Substance: shRNA (SEQ ID NO: 2): lentiviral shRNA against PPME1, target sequence SEQ ID NO: 2 GCAGCGATTATTAGTAGAGTT, bp 289-309; hairpin SEQ ID NO: 8 (CCGGGCAGCGATTATTAGTAGAGTTCTCGAGAACTCTACTAATAATCGCTGCTTTTT; listed as Homo sapiens)
- total β-catenin protein (Western) (RL95-2, absence of MG-132): stabilization of total β-catenin
- phosphorylated β-catenin (Western) (RL95-2, treated with 10 μM MG-132, compared to control cells): did not lead to an increase in phosphorylated β-catenin
